Ki data for four molecules are collected here from BindingDB's records for doi:10.1046/j.1471-4159.2000.0750413.x (Oregon State University, 2000).

Molecules are shown by their SMILES.

The target of the test is Cannabinoid receptor 1 (Taricha granulosa, UniProt Q9PUI7).
Cannabinoid receptor 1, sequence (Q9PUI7 whole entry): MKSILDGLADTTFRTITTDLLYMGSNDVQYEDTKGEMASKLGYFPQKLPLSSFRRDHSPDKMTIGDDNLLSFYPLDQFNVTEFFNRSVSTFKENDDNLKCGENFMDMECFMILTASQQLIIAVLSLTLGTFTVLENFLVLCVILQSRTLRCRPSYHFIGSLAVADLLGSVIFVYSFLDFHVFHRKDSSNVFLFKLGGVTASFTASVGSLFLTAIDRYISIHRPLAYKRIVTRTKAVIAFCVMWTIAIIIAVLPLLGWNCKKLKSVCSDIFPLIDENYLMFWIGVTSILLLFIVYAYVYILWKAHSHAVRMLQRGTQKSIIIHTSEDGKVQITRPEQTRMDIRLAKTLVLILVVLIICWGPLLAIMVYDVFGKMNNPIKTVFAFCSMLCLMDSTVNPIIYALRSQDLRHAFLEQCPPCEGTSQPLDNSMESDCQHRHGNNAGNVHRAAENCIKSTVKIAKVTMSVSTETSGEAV
`CCCCC/C=C\C/C=C\C/C=C\C/C=C\CCCCCC(=O)NCCO` gave a Ki of 2400 nM. In other words, the single-digit micromolar range.
Take `CCCCCCC(C)(C)c1ccc([C@H]2C[C@@H](O)CC[C@@H]2CCCO)c(O)c1` [CP-56667 [(+)-AC],XV]: the Ki worked out at 3.8 nM. This Ki lies about 630-fold lower than the previous one.
Turning to `CC(=O)Oc1cc(OC(C)CCCc2ccccc2)cc2c1C1CC(O)CCC1C(C)N2` (centres undefined) [NSC_107822], the Ki worked out at 13 nM.
As for `Cc1c(C(=O)c2cccc3ccccc23)c2cccc3c2n1[C@H](CN1CCOCC1)CO3` [WIN55212-2], the Ki was found to be 25.7 nM.
